Experiment: wn = mass fraction of the nth substance listed
Conditions: Liquid, Pycnometric method, w2 = 0.5111

FC(F)C(F)(F)F [pentafluoroethane] + FCF
Conditions | mass density [kg/m3]
268.15 K, 3423 kPa | 1190.3
269.15 K, 4259 kPa | 1190.1
270.15 K, 5065 kPa | 1189.9
270.15 K, 5095 kPa | 1189.9
270.15 K, 5157 kPa | 1190.1
271.15 K, 5903 kPa | 1189.7
271.15 K, 5931 kPa | 1189.7
271.15 K, 5992 kPa | 1189.9
272.15 K, 6740 kPa | 1189.6
272.15 K, 6767 kPa | 1189.5
272.15 K, 6828 kPa | 1189.7
273.15 K, 7576 kPa | 1189.4
273.15 K, 7602 kPa | 1189.3
273.15 K, 7662 kPa | 1189.5
274.15 K, 8411 kPa | 1189.2
274.15 K, 8437 kPa | 1189.2
274.15 K, 8496 kPa | 1189.3
275.15 K, 9245 kPa | 1189
275.15 K, 9272 kPa | 1189
275.15 K, 9328 kPa | 1189.2
276.15 K, 10082 kPa | 1188.8
276.15 K, 10107 kPa | 1188.8
276.15 K, 10161 kPa | 1189
277.15 K, 10917 kPa | 1188.6
277.15 K, 10942 kPa | 1188.6
277.15 K, 10993 kPa | 1188.8
278.15 K, 11753 kPa | 1188.4
278.15 K, 11776 kPa | 1188.4
278.15 K, 11824 kPa | 1188.6
279.15 K, 12587 kPa | 1188.2
279.15 K, 12611 kPa | 1188.2
279.15 K, 12657 kPa | 1188.4
280.15 K, 13423 kPa | 1188.1
280.15 K, 13444 kPa | 1188.1
280.15 K, 13488 kPa | 1188.2
281.15 K, 14258 kPa | 1187.9
281.15 K, 14277 kPa | 1187.9
281.15 K, 14319 kPa | 1188.1
282.15 K, 15091 kPa | 1187.7
282.15 K, 15110 kPa | 1187.7
282.15 K, 15148 kPa | 1187.9
283.15 K, 15926 kPa | 1187.5
283.15 K, 15943 kPa | 1187.6
283.15 K, 15978 kPa | 1187.7
284.15 K, 16759 kPa | 1187.4
284.15 K, 16775 kPa | 1187.4
284.15 K, 16808 kPa | 1187.6
285.15 K, 17592 kPa | 1187.2
285.15 K, 17606 kPa | 1187.2
285.15 K, 17637 kPa | 1187.4
286.15 K, 18423 kPa | 1187.1
286.15 K, 18437 kPa | 1187.1
286.15 K, 18467 kPa | 1187.2
287.15 K, 19253 kPa | 1186.9
287.15 K, 19268 kPa | 1186.9
287.15 K, 19297 kPa | 1187.1
288.15 K, 20083 kPa | 1186.7
288.15 K, 20097 kPa | 1186.8
288.15 K, 20124 kPa | 1186.9
289.15 K, 20914 kPa | 1186.6
289.15 K, 20926 kPa | 1186.6
289.15 K, 20951 kPa | 1186.8
290.15 K, 21743 kPa | 1186.4
290.15 K, 21755 kPa | 1186.5
290.15 K, 21778 kPa | 1186.6
291.15 K, 22571 kPa | 1186.3
291.15 K, 22583 kPa | 1186.3
291.15 K, 22607 kPa | 1186.5
292.15 K, 23400 kPa | 1186.2
292.15 K, 23410 kPa | 1186.2
292.15 K, 23433 kPa | 1186.4
293.15 K, 24226 kPa | 1186
293.15 K, 24236 kPa | 1186
293.15 K, 24257 kPa | 1186.2
294.15 K, 25053 kPa | 1185.9
294.15 K, 25062 kPa | 1185.9
294.15 K, 25082 kPa | 1186.1
295.15 K, 25878 kPa | 1185.7
295.15 K, 25887 kPa | 1185.7
295.15 K, 25903 kPa | 1185.9
296.15 K, 5585 kPa | 1097.9
296.15 K, 5620 kPa | 1097.9
296.15 K, 5667 kPa | 1097.9
296.15 K, 26704 kPa | 1185.6
296.15 K, 26711 kPa | 1185.6
296.15 K, 26725 kPa | 1185.8
297.15 K, 6213 kPa | 1097.7
297.15 K, 6246 kPa | 1097.7
297.15 K, 6292 kPa | 1097.7
297.15 K, 27528 kPa | 1185.5
297.15 K, 27534 kPa | 1185.5
297.15 K, 27546 kPa | 1185.6
298.15 K, 6841 kPa | 1097.5
298.15 K, 6872 kPa | 1097.5
298.15 K, 6917 kPa | 1097.6
298.15 K, 28352 kPa | 1185.4
298.15 K, 28357 kPa | 1185.3
298.15 K, 28366 kPa | 1185.5
299.15 K, 7469 kPa | 1097.4
299.15 K, 7499 kPa | 1097.4
299.15 K, 7541 kPa | 1097.4
299.15 K, 29176 kPa | 1185.2
299.15 K, 29179 kPa | 1185.2
299.15 K, 29186 kPa | 1185.4
300.15 K, 8097 kPa | 1097.2
300.15 K, 8124 kPa | 1097.2
300.15 K, 8166 kPa | 1097.2
300.15 K, 29998 kPa | 1185.1
300.15 K, 29999 kPa | 1185.1
300.15 K, 30003 kPa | 1185.2
301.15 K, 8725 kPa | 1097.1
301.15 K, 8750 kPa | 1097.1
301.15 K, 8791 kPa | 1097.1
302.15 K, 9353 kPa | 1096.9
302.15 K, 9377 kPa | 1096.9
302.15 K, 9417 kPa | 1096.9
303.15 K, 9980 kPa | 1096.8
303.15 K, 10003 kPa | 1096.8
303.15 K, 10042 kPa | 1096.8
304.15 K, 10607 kPa | 1096.6
304.15 K, 10629 kPa | 1096.6
304.15 K, 10667 kPa | 1096.7
305.15 K, 11234 kPa | 1096.5
305.15 K, 11256 kPa | 1096.5
305.15 K, 11292 kPa | 1096.5
306.15 K, 11861 kPa | 1096.4
306.15 K, 11881 kPa | 1096.4
306.15 K, 11917 kPa | 1096.4
307.15 K, 12487 kPa | 1096.2
307.15 K, 12507 kPa | 1096.2
307.15 K, 12541 kPa | 1096.2
308.15 K, 13114 kPa | 1096.1
308.15 K, 13133 kPa | 1096.1
308.15 K, 13165 kPa | 1096.1
309.15 K, 13740 kPa | 1095.9
309.15 K, 13758 kPa | 1095.9
309.15 K, 13790 kPa | 1095.9
310.15 K, 14367 kPa | 1095.8
310.15 K, 14384 kPa | 1095.8
310.15 K, 14414 kPa | 1095.8
311.15 K, 14992 kPa | 1095.6
311.15 K, 15009 kPa | 1095.7
311.15 K, 15038 kPa | 1095.7
312.15 K, 15618 kPa | 1095.5
312.15 K, 15634 kPa | 1095.5
312.15 K, 15662 kPa | 1095.5
313.15 K, 16243 kPa | 1095.4
313.15 K, 16259 kPa | 1095.4
313.15 K, 16286 kPa | 1095.4
314.15 K, 16869 kPa | 1095.2
314.15 K, 16883 kPa | 1095.2
314.15 K, 16910 kPa | 1095.3
315.15 K, 17493 kPa | 1095.1
315.15 K, 17507 kPa | 1095.1
315.15 K, 17534 kPa | 1095.1
316.15 K, 18118 kPa | 1095
316.15 K, 18131 kPa | 1095
316.15 K, 18158 kPa | 1095
317.15 K, 18743 kPa | 1094.9
317.15 K, 18755 kPa | 1094.9
317.15 K, 18781 kPa | 1094.9
318.15 K, 19367 kPa | 1094.7
318.15 K, 19379 kPa | 1094.7
318.15 K, 19404 kPa | 1094.8
319.15 K, 19990 kPa | 1094.6
319.15 K, 20003 kPa | 1094.6
319.15 K, 20027 kPa | 1094.6
320.15 K, 20613 kPa | 1094.5
320.15 K, 20627 kPa | 1094.5
320.15 K, 20649 kPa | 1094.5
321.15 K, 21236 kPa | 1094.4
321.15 K, 21250 kPa | 1094.4
321.15 K, 21272 kPa | 1094.4
322.15 K, 21858 kPa | 1094.2
322.15 K, 21873 kPa | 1094.3
322.15 K, 21894 kPa | 1094.3
323.15 K, 22480 kPa | 1094.1
323.15 K, 22495 kPa | 1094.1
323.15 K, 22516 kPa | 1094.2
324.15 K, 23103 kPa | 1094
324.15 K, 23117 kPa | 1094
324.15 K, 23137 kPa | 1094
325.15 K, 23725 kPa | 1093.9
325.15 K, 23738 kPa | 1093.9
325.15 K, 23758 kPa | 1093.9
326.15 K, 24347 kPa | 1093.8
326.15 K, 24361 kPa | 1093.8
326.15 K, 24379 kPa | 1093.8
327.15 K, 24970 kPa | 1093.7
327.15 K, 24981 kPa | 1093.7
327.15 K, 25000 kPa | 1093.7
328.15 K, 25590 kPa | 1093.6
328.15 K, 25601 kPa | 1093.6
328.15 K, 25620 kPa | 1093.6
